Columns and labels:
Conditions in all cases: 48 h
SEM cells [1] = experiment: AUC of viability dose-response curve (% viability x log10 dose units); higher = less sensitive
Summary of the method: (§1)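 Area under the curve was integrated by trapezoidal rule from a log-logistic fit of normalised viability, with curves exceeding full viability scaled and quality-control failures removed. The fit had four parameters over log10 doses. Viability came from CellTiter-Glo One luminescence, normalised per plate to DMSO and cell-free wells, after leukemia cells adapted to each medium (500 or 1000 cells/well, 1536-well plates) were exposed to library compounds in DMSO for 48 h at 37°C. The 11 threefold doses ran from 47 μM to 0.79 nM.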

NOMO1 [2] = experiment: as above
Summary of the method: as §1

P12-Ichikawa [3] = experiment: as above
Summary of the method: as §1

SEM cells [4] = experiment: cell viability relative to DMSO control; higher = less cytotoxic
Summary of the method: (§2)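 Viability, reported as a per-plate percentage of DMSO wells with cell-free wells as background, came from CellTiter-Glo One luminescence. Reading took place after 48 h at 37°C. Before that, NOMO1 or SEM (500 cells/well) or P12-Ichikawa (1000 cells/well) leukemia cells, adapted for at least four passages in each medium, were seeded in 1536-well plates (5 μl) and pin-dosed with library compounds in DMSO, 47 μM to 0.79 nM over 11 threefold points.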

NOMO1 [5] = experiment: as above
Summary of the method: as §2

P12-Ichikawa [6] = experiment: as above
Summary of the method: as §2

CCN1\C=C(C(O)=O)/C(=O)C2=C1C(=C(N3CCNC(C)C3)C(=C2)F)F (centres undefined)
AUC of viability dose-response curve
Conditions | NOMO1 [2] | P12-Ichikawa [3] | SEM cells [1]
HPLM + 10% dialyzed FBS | 458 | 462 | 467
RPMI 5 mM glucose + 10% FBS | 471 | 457 | 471
RPMI 5 mM glucose + 10% dialyzed FBS | 452 | 461 | 469

cell viability [%]
Conditions | NOMO1 [5] | P12-Ichikawa [6] | SEM cells [4]
HPLM + 10% dialyzed FBS, 0.000781 µM | 101 | 96.7 | 92.5
HPLM + 10% dialyzed FBS, 0.00234 µM | 103 | 107 | 99
HPLM + 10% dialyzed FBS, 0.00702 µM | 114 | 111 | 106
HPLM + 10% dialyzed FBS, 0.0211 µM | 115 | 125 | 117
HPLM + 10% dialyzed FBS, 0.0632 µM | 118 | 101 | 109
HPLM + 10% dialyzed FBS, 0.19 µM | 121 | 109 | 95.3
HPLM + 10% dialyzed FBS, 0.569 µM | 121 | 119 | 116
HPLM + 10% dialyzed FBS, 1.71 µM | 129 | 115 | 110
HPLM + 10% dialyzed FBS, 5.12 µM | 128 | 124 | 118
HPLM + 10% dialyzed FBS, 15.4 µM | 120 | 118 | 97.3
HPLM + 10% dialyzed FBS, 46.1 µM | 114 | 110 | 112
RPMI 5 mM glucose + 10% FBS, 0.000781 µM | 114 | 87 | 99.8
RPMI 5 mM glucose + 10% FBS, 0.00234 µM | 117 | 94 | 95
RPMI 5 mM glucose + 10% FBS, 0.00702 µM | 102 | 110 | 111
RPMI 5 mM glucose + 10% FBS, 0.0211 µM | 115 | 110 | 111
RPMI 5 mM glucose + 10% FBS, 0.0632 µM | 121 | 109 | 110
RPMI 5 mM glucose + 10% FBS, 0.19 µM | 107 | 110 | 100
RPMI 5 mM glucose + 10% FBS, 0.569 µM | 122 | 114 | 108
RPMI 5 mM glucose + 10% FBS, 1.71 µM | 116 | 113 | 110
RPMI 5 mM glucose + 10% FBS, 5.12 µM | 123 | 107 | 112
RPMI 5 mM glucose + 10% FBS, 15.4 µM | 116 | 124 | 107
RPMI 5 mM glucose + 10% FBS, 46.1 µM | 111 | 116 | 96.4
RPMI 5 mM glucose + 10% dialyzed FBS, 0.000781 µM | 103 | 104 | 93.4
RPMI 5 mM glucose + 10% dialyzed FBS, 0.00234 µM | 112 | 112 | 105
RPMI 5 mM glucose + 10% dialyzed FBS, 0.00702 µM | 104 | 110 | 116
RPMI 5 mM glucose + 10% dialyzed FBS, 0.0211 µM | 106 | 113 | 119
RPMI 5 mM glucose + 10% dialyzed FBS, 0.0632 µM | 118 | 107 | 133
RPMI 5 mM glucose + 10% dialyzed FBS, 0.19 µM | 112 | 116 | 107
RPMI 5 mM glucose + 10% dialyzed FBS, 0.569 µM | 111 | 117 | 125
RPMI 5 mM glucose + 10% dialyzed FBS, 1.71 µM | 122 | 113 | 117
RPMI 5 mM glucose + 10% dialyzed FBS, 5.12 µM | 113 | 124 | 102
RPMI 5 mM glucose + 10% dialyzed FBS, 15.4 µM | 139 | 120 | 97
RPMI 5 mM glucose + 10% dialyzed FBS, 46.1 µM | 98.3 | 112 | 119

N#Cc1c(N(CC(=O)[O-])CC(=O)[O-])sc(C(=O)[O-])c1CC(=O)[O-].O.O.O.O.O.O.O.[Sr+2].[Sr+2]
AUC of viability dose-response curve
Conditions | NOMO1 [2] | P12-Ichikawa [3] | SEM cells [1]
HPLM + 10% dialyzed FBS | 467 | 463 | 462
RPMI 5 mM glucose + 10% FBS | 472 | 458 | 467
RPMI 5 mM glucose + 10% dialyzed FBS | 472 | 456 | 449

cell viability [%]
Conditions | HPLM + 10% dialyzed FBS | RPMI 5 mM glucose + 10% FBS | RPMI 5 mM glucose + 10% dialyzed FBS
NOMO1 [5], 0.000781 µM | 113 | – | –
NOMO1 [5], 0.00234 µM | 123 | – | –
NOMO1 [5], 0.00702 µM | 150 | – | –
NOMO1 [5], 0.0211 µM | 130 | – | –
NOMO1 [5], 0.0632 µM | 137 | – | –
NOMO1 [5], 0.19 µM | 129 | – | –
NOMO1 [5], 0.569 µM | 148 | – | –
NOMO1 [5], 1.71 µM | 123 | – | –
NOMO1 [5], 5.12 µM | 138 | – | –
NOMO1 [5], 15.4 µM | 124 | – | –
NOMO1 [5], 46.1 µM | 112 | – | –
SEM cells [4], 0.000781 µM | 111 | 117 | 111
SEM cells [4], 0.00234 µM | 113 | 124 | 107
SEM cells [4], 0.00702 µM | 122 | 131 | 123
SEM cells [4], 0.0211 µM | 111 | 138 | 121
SEM cells [4], 0.0632 µM | 117 | 149 | 129
SEM cells [4], 0.19 µM | 130 | 146 | 131
SEM cells [4], 0.569 µM | 127 | 153 | 134
SEM cells [4], 1.71 µM | 132 | 132 | 128
SEM cells [4], 5.12 µM | 144 | 143 | 112
SEM cells [4], 15.4 µM | 103 | 124 | 89.3
SEM cells [4], 46.1 µM | 87.9 | 102 | 67.9

C[C@]12CC[C@H]3[C@@H](CC[C@@]45O[C@@H]4C(O)=C(C#N)C[C@]35C)[C@@H]1CC[C@@H]2O
AUC of viability dose-response curve
Conditions | NOMO1 [2] | P12-Ichikawa [3] | SEM cells [1]
HPLM + 10% dialyzed FBS | 457 | 454 | 446
RPMI 5 mM glucose + 10% FBS | 458 | 454 | 363
RPMI 5 mM glucose + 10% dialyzed FBS | 456 | 454 | 416

cell viability [%]
Conditions | NOMO1 [5] | P12-Ichikawa [6] | SEM cells [4]
HPLM + 10% dialyzed FBS, 0.000781 µM | 102 | 108 | 89.7
HPLM + 10% dialyzed FBS, 0.00234 µM | 111 | 116 | 79.7
HPLM + 10% dialyzed FBS, 0.00702 µM | 118 | 113 | 102
HPLM + 10% dialyzed FBS, 0.0211 µM | 112 | 116 | 97.3
HPLM + 10% dialyzed FBS, 0.0632 µM | 123 | 125 | 109
HPLM + 10% dialyzed FBS, 0.19 µM | 111 | 116 | 106
HPLM + 10% dialyzed FBS, 0.569 µM | 110 | 111 | 108
HPLM + 10% dialyzed FBS, 1.71 µM | 116 | 115 | 111
HPLM + 10% dialyzed FBS, 5.12 µM | 97.2 | 113 | 89.6
HPLM + 10% dialyzed FBS, 15.4 µM | 109 | 107 | 86.3
HPLM + 10% dialyzed FBS, 46.1 µM | 21.2 | 20.9 | 12.4
RPMI 5 mM glucose + 10% FBS, 0.000781 µM | 111 | 101 | 90.9
RPMI 5 mM glucose + 10% FBS, 0.00234 µM | 119 | 103 | 84.7
RPMI 5 mM glucose + 10% FBS, 0.00702 µM | 117 | 108 | 95.5
RPMI 5 mM glucose + 10% FBS, 0.0211 µM | 127 | 120 | 86
RPMI 5 mM glucose + 10% FBS, 0.0632 µM | 117 | 108 | 90.4
RPMI 5 mM glucose + 10% FBS, 0.19 µM | 119 | 114 | 81.4
RPMI 5 mM glucose + 10% FBS, 0.569 µM | 128 | 121 | 75.4
RPMI 5 mM glucose + 10% FBS, 1.71 µM | 118 | 122 | 84.6
RPMI 5 mM glucose + 10% FBS, 5.12 µM | 117 | 116 | 56.9
RPMI 5 mM glucose + 10% FBS, 15.4 µM | 117 | 108 | 58.8
RPMI 5 mM glucose + 10% FBS, 46.1 µM | 30.7 | 12.3 | 4.92
RPMI 5 mM glucose + 10% dialyzed FBS, 0.000781 µM | 110 | 101 | 116
RPMI 5 mM glucose + 10% dialyzed FBS, 0.00234 µM | 121 | 103 | 107
RPMI 5 mM glucose + 10% dialyzed FBS, 0.00702 µM | 127 | 113 | 121
RPMI 5 mM glucose + 10% dialyzed FBS, 0.0211 µM | 132 | 116 | 105
RPMI 5 mM glucose + 10% dialyzed FBS, 0.0632 µM | 143 | 114 | 114
RPMI 5 mM glucose + 10% dialyzed FBS, 0.19 µM | 132 | 114 | 102
RPMI 5 mM glucose + 10% dialyzed FBS, 0.569 µM | 128 | 111 | 110
RPMI 5 mM glucose + 10% dialyzed FBS, 1.71 µM | 135 | 115 | 110
RPMI 5 mM glucose + 10% dialyzed FBS, 5.12 µM | 136 | 109 | 87.2
RPMI 5 mM glucose + 10% dialyzed FBS, 15.4 µM | 125 | 105 | 52.8
RPMI 5 mM glucose + 10% dialyzed FBS, 46.1 µM | 24.3 | 16.7 | 5.45

— the supplement of paper PMC11451515
